Test results as given in a compilation of properties of binary mixtures (doi:10.1021/acs.jced.0c00447).

Test: xn = mol fraction of the nth substance listed
Details: 100 kPa

CC[n+]1ccn(C)c1.N#C[N-]C#N + OCC(F)(F)F
Details	speed of sound [m/s]	viscosity [mPa·s]
298.15 K, x1 = 0.1031	1021.8	2.48
298.15 K, x1 = 0.1957	1150.9	3.2
298.15 K, x1 = 0.4905	1463.6	6.07
298.15 K, x1 = 0.5915	1544.5	7.25
298.15 K, x1 = 0.6943	1614.6	8.56
298.15 K, x1 = 0.7956	1673.5	9.95
298.15 K, x1 = 0.8915	1730.2	11.36
298.15 K, x1 = 1	1786.7	13.09
303.15 K, x1 = 0.1957	1137.7	2.81
303.15 K, x1 = 0.2936	1258.6	3.55
303.15 K, x1 = 0.3935	1366.8	4.39
303.15 K, x1 = 0.4905	1450.9	5.29
303.15 K, x1 = 0.6943	1602.2	7.46
303.15 K, x1 = 0.7956	1661.2	8.67
303.15 K, x1 = 0.8915	1717.9	9.91
303.15 K, x1 = 1	1774.6	11.39
308.15 K, x1 = 0.1031	995.3	1.96
308.15 K, x1 = 0.1957	1124.7	2.52
308.15 K, x1 = 0.2936	1245.8	3.17
308.15 K, x1 = 0.3935	1354.2	3.92
308.15 K, x1 = 0.4905	1438.3	4.71
308.15 K, x1 = 0.5915	1519.5	5.61
308.15 K, x1 = 0.6943	1590	6.6
308.15 K, x1 = 0.7956	1649.1	7.66
308.15 K, x1 = 1	1762.5	10
313.15 K, x1 = 0.1031	982.2	1.76
313.15 K, x1 = 0.1957	1111.8	2.27
313.15 K, x1 = 0.2936	1233.1	2.87
313.15 K, x1 = 0.3935	1341.7	3.54
313.15 K, x1 = 0.4905	1425.9	4.25
313.15 K, x1 = 0.5915	1507.3	5.04
313.15 K, x1 = 0.6943	1577.9	5.91
313.15 K, x1 = 0.7956	1637	6.83
313.15 K, x1 = 0.8915	1693.9	7.76
318.15 K, x1 = 0.1031	969.4	1.6
318.15 K, x1 = 0.3935	1329.4	3.23
318.15 K, x1 = 0.4905	1413.7	3.86
318.15 K, x1 = 0.5915	1495.2	4.57
318.15 K, x1 = 0.6943	1565.9	5.34
318.15 K, x1 = 0.7956	1625	6.15
318.15 K, x1 = 0.8915	1682	6.96
318.15 K, x1 = 1	1738.8	7.92
323.15 K, x1 = 0.1031	956.4	1.48
323.15 K, x1 = 0.1957	1086.4	1.93
323.15 K, x1 = 0.2936	1208.1	2.44
323.15 K, x1 = 0.3935	1317.1	2.99
323.15 K, x1 = 0.4905	1401.5	3.57
323.15 K, x1 = 0.5915	1483.2	4.2
323.15 K, x1 = 0.6943	1553.9	4.89
323.15 K, x1 = 0.7956	1613.1	5.6
323.15 K, x1 = 0.8915	1670.2	6.31
323.15 K, x1 = 1	1727.1	7.13

OCC(F)(F)F + CC[n+]1ccn(C)c1.N#C[N-]C#N
x2 = 0
Details	speed of sound [m/s]	viscosity [mPa·s]
303.15 K	819.3	1.56
313.15 K	792.3	1.23
318.15 K	778.8	1.1
323.15 K	765.1	0.99
